Measurements published in patent US7989495B2, “Compositions and methods for inhibiting NF-κB mediated tumorigenicity and adhesion dependent survival of cancer cells” (University of Utah Research Foundation, priority 2002, dated 2011).
“Also recorded” adds a separate entry of the source.

What was measured:
[1] = system: DLD-1 colon cancer cell line; assay: Cell proliferation assay (crystal violet, 590 nm); type: cell-based
Description: (§1) DLD-1, HCT-116, and HT-29 colon cancer cell lines were obtained from the ATCC collection and were cultured in Dulbecco's Modification of Eagle's Medium supplemented with 10% fetal bovine serum, glutamine, penicillin, and streptomycin. 293 cells stably transfected with COX-2 (293-COX-2) under the control of a ponasterone sensitive promoter were cultured in Dulbecco's Modification of Eagle's Medium supplemented with 10% fetal bovine serum, 400 μg/ml of zeocin, 400 μg/ml of G418, glutamine, penicillin, and streptomycin. For induction of COX-2 protein expression, 293-COX-2 cells were cultured for 48 hours in media supplemented with 1 μg/ml of ponasterone. All cells were cultured at 37° C. in a humidified incubator with a 5% CO2 atmosphere.
(§2) For the cell proliferation assay, cells were dispersed and plated at 40,000 cells/well in 96-well dishes. At various days in culture, the cells were gently washed twice with 100 μl/well of ice-cold blocking buffer (1% radioimmunoassay grade BSA in PBS) and twice with 100 μl/well of ice-cold PBS. The cells were fixed for 10 min in 100% ice-cold methanol (100 μl/well), then allowed to air-dry. The cells were stained with 100μl/well of 0.1% crystal violet in H2O for 10 minutes, then washed gently four times with dd H20 and four times with PBS. The plates were then air-dried completely. The stained cells were then solubilized in 1% sodium deoxycholate, and the plates read at 590 nm in a spectrophotometer. The absorption at 590 nm is proportional to the number of attached cells.

[2] = system: HCT-116 colon cancer cell line; assay: Cell proliferation assay (crystal violet, 590 nm); type: cell-based
Description: as §1, §2

HT-29 xenografts = assay: Subcutaneous colon cancer xenograft in athymic mice; type: in vivo; details: for tumor volumes, treatment group compared with control group: HT-29 subcutaneous tumors, 1 mg/kg twice weekly for 28 days, vs DMSO
Description: DLD-1, HCT-116, and HT-29 cells were cultured for 6 days in soft agar in the presence of DMSO (control), 10 μM BAY 11-7082, or 10 μM BAY 11-7085. The data points represent the means of colony counts per field (20×) performed in 5 different regions of the culture dishes. The data shown represent a typical result of two separate experiments. FIGS. 2B,C, show athymic mice received subcutaneous injections of HT-29 (B) or HCT-116 (C) cells, followed by […] of BAY 11-7085 (dark bars) or DMSO (white bars) intraperitoneally twice weekly. The bars represent the 25-75% ranges of the tumor volumes and the horizontal lines in the bars are the medians. Using the Kruskal-Wallace statistical test to compare the median tumor volumes between BAY 11-7085 and DMSO yielded a p-value of 0.005 for HT-29 cells but >0.05 for HCT-116 cells.
HT-29 and HCT-116 cells were harvested in 0.25% trypsin-PBS-EDTA, washed once in media and PBS, and resuspended in PBS at 1 million cells per 200 μL. One million cells were injected either subcutaneously in the backs or intraperitoneally in 5 week old female nu/nu athymic mice (Charles River Labs). For the mice with subcutaneous tumors, the tumors were allowed to establish themselves for 10 days after which they were randomized to BAY 11-7085 or DMSO. For the mice with intraperitoneal tumors, the mice received DMSO or BAY 11-7085 (5 mg/kg) 24 hours before the cancer cells were injected intrapentoneally. All mice received BAY 11-7085 (5 mg/kg) or an equal volume of DMSO (˜200 μL) twice weekly for 21-32 days. Subcutaneous tumor sizes were determined by measuring the length and width with calipers. These studies were approved by the U. of Utah Institutional Review Board and Institutional Animal Care and Use Committee and performed in the Animal Resource Center. Mice were euthanized when they experienced a greater than 10% loss in body weight or if they appeared ill. Post-mortem examinations included sectioning of kidney, lung, and liver tissues which were stained with hematoxylin and eosin followed by examination for tissue toxicity/damage by an experienced mouse pathologist (E.J.E.) who was blinded to therapy.
(Wang et al., 1999) However, BAY 11-7082 or BAY 11-7085 alone inhibit colon cancer xenograft growth in athymic mice. HC-116, and HT-29 cell lines were used to generate subcutaneous tumors in athymic female mice. The mice were subsequently randomized to be treated with vehicle (DMSO) alone or BAY 11-7085 1 mg/kg twice weekly for 28 days.

[3] = system: transiently suspended DLD-1 cells; assay: Apoptosis (annexin V) of transiently suspended cells allowed to readhere; type: cell-based
Description: The transiently suspended cells were lysed and allowed to bind to DNA oligonucleotides, containing the NF-κB consensus binding site, that were immobilized to 96-well plates. NF-κB protein bound to the oligonucleotides was detected by an antibody to the p65 subunit that only recognized p65 that is bound to DNA. The positive control was HeLa cells that were stimulated with TNFα A control was performed using excess free NF-κB oligonucleotides (Competitor). […] NF-κB binding activity was determined by the TransAM assay as in FIG. 5A. […] The data shown represent typical results of three separate experiments. […] An immunoblot for COX-2 was performed.
Single cell suspensions were plated at 100,000 cells per well in 24-well plates in media containing DMSO, BAY 11-7082, BAY 11-7085, or MG-132 for 8-24 hours in an incubator. Alternatively, DMSO, BAY 11-7082, BAY 11-7085, or MG-132 were added to cells that were confluent and adherent for several days. The nonadherent cells were aspirated off with the media and spun for 3 minutes at 2,000 rpm in 15 ml polypropylene tubes. The adherent cells were washed twice with PBS, dispersed in trypsin, and spun down for 3 minutes at 2,000 rpm in 15 ml polypropylene tubes. The nonadherent and adherent cells were resuspended in 1× binding buffer (10 mM HEPES/NaOH, pH 7.4, 140 mM NaCl, and 2.5 mM CaCl2) to a final concentration of 10^6 cells/ml. 100 μl of the cell solution were transferred to a 5 ml culture tube and incubated with 5 μl of annexin V-FITC-conjugated monoclonal antibody (Pharmingen) and 10 μl of propidium iodide (from a 50 μg/ml stock solution made in PBS) in the dark at 25° C. for 15 minutes. 400 μl of binding buffer was added to each tube and the cells were analyzed by flow cytometry immediately. The percent of apoptosis was determined as the percent of annexin V-positive, propidium iodide-negative cells of the total cells counted.
Since trypsin can activate protease-activated receptor-2 in colon cancer cell lines, which then results in increased cell proliferation, (Darmoul et al., 2001) NF-κB activation was determined in adherent and confluent DLD-1, HCT-116, Caco-2 and HT-29 cells that were removed from plastic dishes by trypsin or scraping. […] To determine whether the transient activation of NF-κB caused by cell readhesion would render all of the colon cancer cells tested more susceptible to BAY 11-7085-induced apoptosis, DLD-1, HCT-116, Caco-2 and HT-29 colon cancer cell lines were transiently suspended, treated with BAY 11-7085 and allowed to readhere.

[4] = summary statement, concentration not given

Row | SMILES | inhibition of growth of cancer cell line [1, 4] | inhibition of growth of cancer cell line [2, 4] | tumor volumes, treatment group compared with control group (HT-29 xenografts) | share of transiently suspended, readhering cells that became apoptotic [3] | inhibition of cell proliferation ([1]; 10 μM, cultured 8 days) | inhibition of cell proliferation ([2]; 10 μM, cultured 8 days) | p-value, Kruskal-Wallace test of median tumor volumes vs DMSO (HT-29 xenografts; HT-29, intraperitoneally twice weekly) | tumor volumes, treatment group compared with control group (HT-29 xenografts; 1 mg/kg) | in vitro apoptotic threshold during readhesion [3] [µM] | BAY 11-7085-induced apoptosis during readhesion ([3]; transiently suspended, treated, allowed to readhere 8 hours)
1 | Cc1ccc(S(=O)(=O)/C=C/C#N)cc1 [BAY 11-7082, (2E)-3-(tolysulfonyl)-2-propenenitrile] | inhibits growth | inhibits growth | reduce tumor volumes | vast majority |  |  |  |  |  | 
2 | CC(C)(C)c1ccc(S(=O)(=O)/C=C/C#N)cc1 [BAY 11-7085, (2E)-3-[4-(tertiarybutylphenyl)sulfonyl]-2-propenenitrile] |  |  |  | vast majority | greatly inhibited cell proliferation | greatly inhibited cell proliferation | 0.005 | statistically significant overall reduction in the tumor volumes; also recorded: reduce tumor volumes | > 20 | showed the same propensity for BAY 11-7085-induced apoptosis
